Reference: US8586747B2, “3,3-dimethyl tetrahydroquinoline derivatives” (Hoffmann-La Roche Inc., priority 2010, dated 2013)

test system: AMP-activated protein kinase (AMPK); assay: ADP Quest assay for AMPK activators; type: biochemical; set-up: key: fold AMPK activation with vs without activator at 30 µM; details: fold of AMPK activation to phosphorylate SAMS peptide without and with an activator at the concentration of 30 µM
Summary of the method: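 AMPK phosphorylation of SAMS peptide with ATP monitored kinetically at room temperature by ADP Quest fluorescence (ex 530/em 590 nm), reaction started with enzyme. Compounds tested […] in 2-fold dilutions, AMP as reference. E30 is fold activation at 30 µM activator versus none.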

SMILES | E30
Cc1cc(C2Nc3ccc(C(=O)O)cc3CC2(C)C)cc(N2CCOCC2)c1 (stereo not drawn) [Example 63, 3,3-Dimethyl-2-(3-methyl-5-morpholin-4-yl-phenyl)-1,2,3,4-tetrahydro-quinoline-6-carboxylic acid] | 1.56
CC(C)N1CCN(c2cc(F)cc(C3Nc4ccc(C(=O)NS(C)(=O)=O)cc4CC3(C)C)c2)CC1 (stereo not drawn) [Example 75, N-{2-[3-Fluoro-5-(4-isopropyl-piperazin-1-yl)-phenyl]-3,3-dimethyl-1,2,3,4-tetrahydro-quinoline-6-carbonyl}-methanesulfonamide] | 1.19
CN1CCC(NC(=O)c2cccc(C3Nc4ccc(C(=O)O)cc4CC3(C)C)c2)C1 (stereo not drawn) [Example 165, 3,3-dimethyl-2-(3-(1-methylpyrrolidin-3-ylcarbamoyl)phenyl)-1,2,3,4-tetrahydroquinoline-6-carboxylic acid] | 1.53
CN1CCN(C(=O)Nc2cccc(C3Nc4ccc(C(=O)O)cc4CC3(C)C)c2)CC1 (stereo not drawn) [Example 27, 3,3-Dimethyl-2-{3-[(4-methyl-piperazine-1-carbonyl)-amino]-phenyl}-1,2,3,4-tetrahydro-quinoline-6-carboxylic acid] | 1.24
CN(C)S(=O)(=O)Nc1cccc(C2Nc3ccc(C(=O)O)cc3CC2(C)C)c1 (stereo not drawn) [Example 25, 2-(3-(N,N-dimethylsulfamoylamino)phenyl)-3,3-dimethyl-1,2,3,4-tetrahydroquinoline-6-carboxylic acid] | 1.29
CC1(C)Cc2cc(C(=O)O)ccc2NC1c1ccc(F)c(NC(=O)C2CCCC2)c1 (stereo not drawn) [Example 196, 2-(3-(Cyclopentanecarboxamido)-4-fluorophenyl)-,3-dimethyl-1,2,3,4-tetrahydroquinoline-6-carboxylic acid] | 1.25
CN(C)C(=O)C(C)(C)Nc1cccc(C2Nc3ccc(C(=O)O)cc3CC2(C)C)c1 (stereo not drawn) [Example 40, 2-[3-(1-Dimethylcarbamoyl-1-methyl-ethylamino)-phenyl]-3,3-dimethyl-1,2,3,4-tetrahydro-quinoline-6-carboxylic acid] | 1.35
CC1(C)Cc2cc(C(=O)O)ccc2NC1c1cccc(C(=O)NS(C)(=O)=O)c1 (stereo not drawn) [Example 179, 3,3-Dimethyl-2-(3-(methylsulfonylcarbamoyl)-phenyl)-1,2,3,4-tetrahydroquinoline-6-carboxylic acid] | 1.33
CC(C)(Nc1cccc(C2Nc3c(cc(Cl)cc3C(=O)O)CC2(C)C)c1)C(=O)O (stereo not drawn) [Example 80, 2-[3-(1-Carboxy-1-methyl-ethylamino)-phenyl]-6-chloro-3,3-dimethyl-1,2,3,4-tetrahydro-quinoline-8-carboxylic acid] | 1.72
Cc1ccccc1N1CCN(c2cccc(C3Nc4c(cccc4C(=O)O)CC3(C)C)c2)CC1 (stereo not drawn) [Example 94, 3,3-Dimethyl-2-[3-(4-o-tolyl-piperazin-1-yl)-phenyl]-1,2,3,4-tetrahydro-quinoline-8-carboxylic acid] | 1.33
CC(C)(Nc1cccc(C2Nc3ccc(C#N)cc3CC2(C)C)c1)C(=O)O (stereo not drawn) [Example 38, 2-[3-(6-Cyano-3,3-dimethyl-1,2,3,4-tetrahydro-quinolin-2-yl)-phenylamino]-2-methyl-propionic acid] | 2.12
CC(C)S(=O)(=O)NC(=O)c1ccc2c(c1)CC(C)(C)C(c1cccc(N3CCOCC3)c1)N2 (stereo not drawn) [Example 10, Propane-2-sulfonic acid [3,3-dimethyl-2-(3-morpholin-4-yl-phenyl)-1,2,3,4-tetrahydro-quinoline-6-carbonyl]-amide] | 1.27
CC(C)(C)OC(=O)N1CC(NC(=O)c2cccc(C3Nc4ccc(C(=O)O)cc4CC3(C)C)c2)C1 (stereo not drawn) [Example 207, 2-(3-(1-(Tert-butoxycarbonyl)azetidin-3-ylcarbamoyl)phenyl)-3,3-dimethyl-1,2,3,4-tetrahydroquinoline-6-carboxylic acid] | 1.32
CC1(C)Cc2c(C(=O)NS(=O)(=O)C3CC3)ccc(F)c2NC1c1cccc(N2CCOCC2)c1 (stereo not drawn) [Example 150, Cyclopropanesulfonic acid [8-fluoro-3,3-dimethyl-2-(3-morpholin-4-yl-phenyl)-1,2,3,4-tetrahydro-quinoline-5-carbonyl]-amide] | 1.22
CCc1nnnn1-c1cccc(C2Nc3ccc(C(=O)NS(=O)(=O)C4CC4)cc3CC2(C)C)c1 (stereo not drawn) [Example 145, Cyclopropanesulfonic acid {2-[3-(5-ethyl-tetrazol-1-yl)-phenyl]-3,3-dimethyl-1,2,3,4-tetrahydro-quinoline-6-carbonyl}-amide] | 1.22
CC1(C)Cc2c(cc(F)cc2C(=O)NS(=O)(=O)C2CC2)NC1c1cccc(N2CCOCC2)c1 (stereo not drawn) [Example 138, Cyclopropanesulfonic acid [7-fluoro-3,3-dimethyl-2-(3-morpholin-4-yl-phenyl)-1,2,3,4-tetrahydro-quinoline-5-carbonyl]-amide] | 1.21
CN1CCC(NC(=O)c2cccc(C3Nc4c(cccc4C(=O)O)CC3(C)C)c2)C1 (stereo not drawn) [Example 224, 3,3-Dimethyl-2-(3-(1-methylpyrrolidin-3-ylcarbamoyl)phenyl)-1,2,3,4-tetrahydroquinoline-8-carboxylic acid] | 1.43

SMILES | E30
CC1(C)Cc2cc(C(=O)O)ccc2NC1c1ccc(NS(=O)(=O)c2ccccc2F)cc1 (stereo not drawn) [Example 213, 2-(4-(2-Fluorophenylsulfonamido)phenyl)-3,3-dimethyl-1,2,3,4-tetrahydroquinoline-6-carboxylic acid] | 1.27
CN1CCN(c2cccc(C3Nc4ccc(C(=O)NS(=O)(=O)C5CC5)cc4CC3(C)C)c2)C(=O)C1=O (stereo not drawn) [Example 129, Cyclopropanesulfonic acid {3,3-dimethyl-2-[3-(4-methyl-2,3-dioxo-piperazin-1-yl)-phenyl]-1,2,3,4-tetrahydro-quinoline-6-carbonyl}-amide] | 1.25
CC(C)NC(=O)c1ccc(-c2cccc(C3Nc4ccc(C(=O)O)cc4CC3(C)C)c2)cc1 (stereo not drawn) [Example 159, 2-(4′-Isopropylcarbamoyl-biphenyl-3-yl)-3,3-dimethyl-1,2,3,4-tetrahydro-quinoline-6-carboxylic acid] | 1.31
CC1(C)Cc2cc(C(=O)NS(=O)(=O)C3CC3)ccc2NC1c1ccc(F)c(N2CCOCC2)c1 (stereo not drawn) [Example 58, Cyclopropanesulfonic acid [2-(4-fluoro-3-morpholin-4-yl-phenyl)-3,3-dimethyl-1,2,3,4-tetrahydro-quinoline-6-carbonyl]-amide] | 1.22
CC(C)(Nc1cccc(C2Nc3ccc(C(=O)NS(C)(=O)=O)cc3CC2(C)C)c1)C(=O)O (stereo not drawn) [Example 28, 2-[3-(6-Methanesulfonylaminocarbonyl-3,3-dimethyl-1,2,3,4-tetrahydro-quinolin-2-yl)-phenylamino]-2-methyl-propionic acid] | 2.5
CN1CCN(c2cccc(C3Nc4ccc(C(=O)O)cc4CC3(C)C)c2)C1=O (stereo not drawn) [Example 16, 3,3-Dimethyl-2-[3-(3-methyl-2-oxo-imidazolidin-1-yl)-phenyl]-1,2,3,4-tetrahydro-quinoline-6-carboxylic acid] | 1.59
CC1(C)Cc2cc(C(=O)NS(C)(=O)=O)ccc2NC1c1cccc(N2CC(F)C2)c1 (stereo not drawn) [Example 154, N-{2-[3-(3-Fluoro-azetidin-1-yl)-phenyl]-3,3-dimethyl-1,2,3,4-tetrahydro-quinoline-6-carbonyl}-methanesulfonamide] | 1.24
CC1(C)Cc2cc(C(=O)O)ccc2NC1c1cccc(N2CCN(c3ccccc3)C2=O)c1 (stereo not drawn) [Example 26, 3,3-Dimethyl-2-[3-(2-oxo-3-phenyl-imidazolidin-1-yl)-phenyl]-1,2,3,4-tetrahydro-quinoline-6-carboxylic acid] | 1.27
CC1(C)Cc2cc(C(=O)O)ccc2NC1c1cccc(N2C(=O)OCC2Cc2ccccc2)c1 (stereo in doubt) [Example 124, 2-[3-((S)-4-Benzyl-2-oxo-oxazolidin-3-yl)-phenyl]-3,3-dimethyl-1,2,3,4-tetrahydro-quinoline-6-carboxylic acid] | 1.34
CC1CN(c2cccc(C3Nc4ccc(C(=O)NS(=O)(=O)C5CC5)cc4CC3(C)C)c2)CC(C)O1 (stereo not drawn) [Example 105, Cyclopropanesulfonic acid {2-[3-(2,6-dimethyl-morpholin-4-yl)-phenyl]-3,3-dimethyl-1,2,3,4-tetrahydro-quinoline-6-carbonyl}-amide] | 1.35
CC1(C)Cc2c(cc(F)cc2C(=O)NS(C)(=O)=O)NC1c1cccc(N2CCOCC2)c1 (stereo not drawn) [Example 135, N-[7-Fluoro-3,3-dimethyl-2-(3-morpholin-4-yl-phenyl)-1,2,3,4-tetrahydro-quinoline-5-carbonyl]-methanesulfonamide] | 1.31
CC1(C)Cc2cc(C(=O)O)ccc2NC1c1cccc(NC(=O)c2cccnc2)c1 (stereo not drawn) [Example 3, 3,3-Dimethyl-2-{3-[(pyridine-3-carbonyl)-amino]-phenyl}-1,2,3,4-tetrahydro-quinoline-6-carboxylic acid] | 1.33
CC1(C)Cc2cc(C(=O)O)ccc2NC1c1cc(F)cc(-c2ccc(C#N)cc2)c1 (stereo not drawn) [Example 51, 2-(4′-Cyano-5-fluoro-biphenyl-3-yl)-3,3-dimethyl-1,2,3,4-tetrahydro-quinoline-6-carboxylic acid] | 1.42
CC1(C)Cc2cc(C(=O)O)ccc2NC1c1cc(Cl)cc(NC(=O)c2ccccc2)c1 (stereo not drawn) [Example 202, 2-(3-Benzamido-5-chlorophenyl)-3,3-dimethyl-1,2,3,4-tetrahydroquinoline-6-carboxylic acid] | 1.22
CC(C)(C)c1ccc(-c2cccc(C3Nc4c(cc(Cl)cc4C(=O)O)CC3(C)C)c2)cc1 (stereo not drawn) [Example 142, 2-(4′-tert-Butyl-biphenyl-3-yl)-6-chloro-3,3-dimethyl-1,2,3,4-tetrahydro-quinoline-8-carboxylic acid] | 1.54
Cc1cc(C2Nc3ccc(C(=O)NS(=O)(=O)C4CC4)cc3CC2(C)C)cc(N2CCOCC2)c1 (stereo not drawn) [Example 64, Cyclopropanesulfonic acid [3,3-dimethyl-2-(3-methyl-5-morpholin-4-yl-phenyl)-1,2,3,4-tetrahydro-quinoline-6-carbonyl]-amide] | 1.48
